Laboratory results taken from patent US8124637B2, “Anthra [1, 2-d]imidazole-6,11-dione derivatives, preparation method and application thereof” (National Defense Medical Center, priority 2010, dated 2012).

Key:
[1] = MTT assay (relative cell survival), H1299; conditions: human, H1299 non-small cell lung cancer cells (PhTERT-SEAP), Relative MTT viability (%)
Experimental: (§3) Further, cells were subjected to MTT assay to compare the relative toxicity or effect of each compound on cell proliferation and activity.
(§4) The above-described cells are cultured in a 96-well plate, to which was added with 25 μl MTT solution, and cultured in a 37° C. carbon dioxide incubator for 4 hours. Then, 100 μl Lysis buffer is added and incubated in a 37° C. carbon dioxide incubator overnight. An ELISA reader (Bio-Rad Model 450) is used to read optical density (O.D.) at 550 nm.
(§5) After being subjected to different compound treatments for 72 hours, cells were treated with a fixed amount of MTT solution for 28 hours. Then, DMSO was used to dissolve back formazan, an O. D. value was detected at wavelength in the range of 550/670 nm, and calculated accordingly the cell survival rate (as shown in Table 1).

[2] = system: hTERT promoter (PhTERT) expression; assay: SEAP assay (PhTERT-SEAP reporter, H1299); type: cell-based, human; conditions: Homo sapiens, NCI-H1299, PhTERT-SEAP (H1299); for activity at 1 µM: read-out: Relative SEAP activity (%); for activity at 10 µM / activity at 100 µM: read-out: Relative SEAP activity (%) (converted)
Outline: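 Stable H1299 clones carrying the hTERT promoter (−3338 to +1) driving SEAP were treated with varying drug amounts for 24 h at 37° C. Heat-treated media (65° C, 10 min) were assayed with 12 mM p-nitrophenyl phosphate in diethanolamine buffer; rate of A405 increase gave SEAP activity.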

CCRF-CEM = assay: NCI 60-cell drug screen, one dose; type: cell-based, human; conditions: Leukemia CCRF-CEM, 1.00E−5 Molar
Experimental: (§1) In brief, cellular protein levels were determined after 48 hours of drug exposure by sulforhodamine B colorimetry.
(§2) The screening system in United State National Cancer Institute (NCI) consists of 60 kinds of different human cancer cells, which can be used to assay the growth-inhibiting ability or cell toxicity of a compound against various cancer and tumor at a certain concentration. The NCI had selected 6 compounds synthesized above, and performed cell toxicity assay against 60 kinds of cancer cell strains (Table 2) (DTP Human Tumor Cell Line Screen), in which each compound was assayed at a certain concentration to observe its inhibition ability or cell toxicity against various kinds of cancer and tumor.

MALME-3M = assay: NCI 60-cell drug screen, one dose; type: cell-based, human; conditions: Melanoma MALME-3M, 1.00E−5 Molar
Experimental: as §1, §2

SR = assay: NCI 60-cell drug screen, one dose; type: cell-based, human; conditions: Leukemia SR, 1.00E−5 Molar
Experimental: as §1, §2

LOX IMVI = assay: NCI 60-cell drug screen, one dose; type: cell-based, human; conditions: Melanoma LOX IMVI, 1.00E−5 Molar
Experimental: as §1, §2

HCT-15 = assay: NCI 60-cell drug screen, one dose; type: cell-based, human; conditions: Colon Cancer HCT-15, 1.00E−5 Molar
Experimental: as §1, §2

OVCAR-3 = assay: NCI 60-cell drug screen, one dose; type: cell-based, human; conditions: Ovarian Cancer OVCAR-3, 1.00E−5 Molar
Experimental: as §1, §2

HCT-116 = assay: NCI 60-cell drug screen, one dose; type: cell-based, human; conditions: Colon Cancer HCT-116, 1.00E−5 Molar
Experimental: as §1, §2

SK-MEL-2 = assay: NCI 60-cell drug screen, one dose; type: cell-based, human; conditions: Melanoma SK-MEL-2, 1.00E−5 Molar
Experimental: as §1, §2

U251 = assay: NCI 60-cell drug screen, one dose; type: cell-based, human; conditions: CNS Cancer U251, 1.00E−5 Molar
Experimental: as §1, §2

SF-295 = assay: NCI 60-cell drug screen, one dose; type: cell-based, human; conditions: CNS Cancer SF-295, 1.00E−5 Molar
Experimental: as §1, §2

HL-60(TB) = assay: NCI 60-cell drug screen, one dose; type: cell-based, human; conditions: Leukemia HL-60(TB), 1.00E−5 Molar
Experimental: as §1, §2

NCI/ADR-RES = assay: NCI 60-cell drug screen, one dose; type: cell-based, human; conditions: Ovarian Cancer NCI/ADR-RES, 1.00E−5 Molar
Experimental: as §1, §2

COLO 205 = assay: NCI 60-cell drug screen, one dose; type: cell-based, human; conditions: Colon Cancer COLO 205, 1.00E−5 Molar
Experimental: as §1, §2

NCI-H226 = assay: NCI 60-cell drug screen, one dose; type: cell-based, human; conditions: Non-Small Cell Lung Cancer NCI-H226, 1.00E−5 Molar
Experimental: as §1, §2

HCC-2998 = assay: NCI 60-cell drug screen, one dose; type: cell-based, human; conditions: Colon Cancer HCC-2998, 1.00E−5 Molar
Experimental: as §1, §2

[3] = system: 60 kinds of different human cancer cells; assay: NCI 60-cell drug screen, one dose, whole panel; type: cell-based; conditions: mean over the tested cell lines, 1.00E−5 Molar
Experimental: as §1, §2

PC-3 = assay: NCI 60-cell drug screen, one dose; type: cell-based, human; conditions: Prostate Cancer PC-3, 1.00E−5 Molar
Experimental: as §1, §2

A549/ATCC = assay: NCI 60-cell drug screen, one dose; type: cell-based, human; conditions: Non-Small Cell Lung Cancer A549/ATCC, 1.00E−5 Molar
Experimental: as §1, §2

MOLT-4 = assay: NCI 60-cell drug screen, one dose; type: cell-based, human; conditions: Leukemia MOLT-4, 1.00E−5 Molar
Experimental: as §1, §2

OVCAR-8 = assay: NCI 60-cell drug screen, one dose; type: cell-based, human; conditions: Ovarian Cancer OVCAR-8, 1.00E−5 Molar
Experimental: as §1, §2

in vitro = conditions: human, Relative MTT viability (%)
Experimental: as §3, §4, §5

| Compound | viability at 72 h, 1 µM [1] [%] | activity at 1 µM [2] [%] | activity at 10 µM [2] [%] | activity at 100 µM [2] [%] | Growth Percent (CCRF-CEM) [%] | Growth Percent (MALME-3M) [%] | Growth Percent (SR) [%] | Growth Percent (LOX IMVI) [%] | Growth Percent (HCT-15) [%] | Growth Percent (OVCAR-3) [%] | Growth Percent (HCT-116) [%] | Growth Percent (SK-MEL-2) [%] | Growth Percent (U251) [%] | Growth Percent (SF-295) [%] | Growth Percent (HL-60(TB)) [%] | Growth Percent (NCI/ADR-RES) [%] | Growth Percent (COLO 205) [%] | Growth Percent (NCI-H226) [%] | Growth Percent (HCC-2998) [%] | Growth Percent, Mean [3] [%] | also measured |
| --- | --- | --- | --- | --- | --- | --- | --- | --- | --- | --- | --- | --- | --- | --- | --- | --- | --- | --- | --- | --- | --- |
| CCN(CC)Cc1nc2ccc3c(c2[nH]1)C(=O)c1ccccc1C3=O [CL04, 2-((diethylamino)methyl)-1H-anthra[1,2-d]imidazole-6,11-dione] | 101 ± 6.67 | 91.2 ± 4.38 | < 50 | 0.13 | 47.88 | 98.45 | 42.38 | 61.98 | 65.75 | 63.32 | 48.22 | 102.69 | 70.77 | 89.56 | 68.18 | 65.32 | 81.00 | 77.20 | 80.61 | 69.66 | viability at 72 h, 10 µM [1]: > 50% |
| CN(CCc1ccccn1)Cc1nc2ccc3c(c2[nH]1)C(=O)c1ccccc1C3=O [CL07, 2-((N-methyl-2-(pyridin-2-yl)ethanamino)methyl)-1H-anthra[1,2-d]imidazole-6,11-dione] | 104.3 ± 0.96 | 96.5 ± 5.53 | < 50 | -3.16 | 39.91 | 107.00 | 70.10 | 89.67 | 80.78 | 83.57 | 83.56 | 95.03 | 81.83 | 105.86 | 120.08 | 86.11 | 117.88 | 81.36 | 95.82 | 89.07 | Growth Percent (PC-3): 99.83%; Growth Percent (A549/ATCC): 106.30%; Growth Percent (MOLT-4): 47.54%; Growth Percent (OVCAR-8): 80.59% |
| O=C1c2ccccc2C(=O)c2c1ccc1nc(CN3CCCCC3)[nH]c21 [CL16, 2-((piperidin-1-yl)methyl)-1H-anthra[1,2-d]imidazole-6,11-dione] | 111 ± 8.66 | 75.8 ± 26.9 | < 50 | 6.78 | 102.47 | 119.68 | 57.64 | 62.99 | 54.20 | 66.26 | 62.12 | 113.29 | 72.67 | – | 56.89 | 73.52 | 74.65 | 78.85 | 82.81 | 75.35 | viability at 72 h, 100 µM ([1]; 100 μM): 19.6%; Growth Percent (PC-3): 81.94%; Growth Percent (MOLT-4): 22.77% |
| CN1CCN(Cc2nc3ccc4c(c3[nH]2)C(=O)c2ccccc2C4=O)CC1 [CL24, 2-((4-methylpiperazin-1-yl)methyl)-1H-anthra[1,2-d]imidazole-6,11-dione] | 87.4 ± 5.52 | 106 ± 2.94 | 23.2 | 6.23 | 34.45 | 89.63 | 21.48 | 43.47 | 44.98 | 52.79 | 27.73 | 107.95 | 65.41 | 81.61 | 65.29 | – | 53.66 | 64.48 | 61.90 | 59.85 | viability at 72 h, 10 µM [1]: < 50% |
| O=C1c2ccccc2C(=O)c2c1ccc1nc(CN3CCN(c4ccccc4)CC3)[nH]c21 [CL27, 2-((4-phenylpiperazin-1-yl)methyl)-1H-anthra[1,2-d]imidazole-6,11-dione] | – | 92.23 ± 0.78 | 76.7 | 5.83 | 74.42 | 119.09 | 43.11 | 95.76 | 74.39 | 76.56 | 78.28 | 101.39 | 84.83 | 105.37 | 107.54 | 80.36 | 128.37 | 82.98 | – | 90.15 | Growth Percent (PC-3): 77.91%; Growth Percent (A549/ATCC): 111.76%; Growth Percent (MOLT-4): 55.21%; Growth Percent (OVCAR-8): 80.89%; viability at 72 h, 1 µM (in vitro): 90.2 ± 3.86%; viability at 72 h, 10 µM (in vitro): 54.4%; viability at 72 h, 100 µM (in vitro): 18.1% |
